{"source": "paper PMC11990879", "about": "“Anticandidal Activity of Lipopeptides Containing an LL-37-Derived Peptide Fragment KR12” (Molecules, 2025)", "key": {"[1]": {"tested_on": "Candida strains (C. albicans, C. glabrata, C. lipolytica, C. tropicalis)", "type": "cell-based", "conditions": "MFCs equal to or twice as high as the corresponding MICs", "description": "(§1) Fungal strains were purchased from the Polish Collection of Microorganisms (Polish Academy of Science, Wroclaw, Poland). Four reference strains of Candida (C. albicans ATCC 10231, C. glabrata ATCC 15126, C. lypolytica PCM 2680, and C. tropicalis PCM 2680) were cultured on the Dextrose Sabouraud Agar (DSA, Neogen, Lansing, MI, USA). Before performing the assays, the fungi were cultured in a Sabouraud dextrose broth (DSB, Neogen, Lansing, MI, USA) for 48 h under aerobic conditions at 25 °C. Afterward, the fungal cultures were centrifuged (2500 rpm, 10 min) and resuspended in the appropriate liquid medium for appropriate inoculums for the performed assays.\n(§2) The strains cultured described in Section 4.1 were suspended in the Roswell Park Memorial Institute 1640 Medium (RPMI, Sigma-Aldrich, St. Louis, MO, USA) at an initial inoculum of ca. 5 × 10^3 CFU/mL. The stock solutions (1024 mg/L) of tested compounds in RPMI were added to 96-well polystyrene plates and diluted serially to well no. 10, leaving wells 11 and 12 for fertility and sterility controls. The tested Candida strains were exposed to graded concentrations (range 0.5–256 mg/L) of the lipopeptides and conventional antifungals (benzalkonium chloride, fluconazole, and nystatin) for 48 h under aerobic conditions at 25 °C. After incubation, the results were read visually.\n(§3) Then the results were read visually. Both MIC as well as the MFC assays were performed threetimes on three different days."}, "[2]": {"tested_on": "C. albicans biofilms cultured on polystyrene", "type": "cell-based, Candida albicans", "description": "as §1\nFungal suspensions in DSB were added to the wells at initial inoculums of ca. 5 × 10^6 CFU/mL and incubated under aerobic conditions, at 25 °C for 24 h, 48 h, and 72 h, in order to grow candidal biofilms of different maturity. After the appropriate time of incubation, the wells were washed with phosphoric buffered (PBS), and fresh RPMI medium supplemented with antifungals and the lipopeptides at graded concentrations (range […]) were added. The fungal biofilms were exposed to the compounds for 24 h (aerobic conditions, 25 °C). After the exposure to antifungals, the content of the wells was aspirated and a 0.01% solution of resazurin (Sigma-Aldrich, St. Louis, MO, USA) in DSB was added. Resazurin (blue) was applied as a cell viability reagent, which upon contact with living cells is reduced to a pink resorufin. The samples with the dye were incubated for 1 h at 25 °C and the absorbance was measured at 570 and 600 nm with a microplate reader (Thermo Fisher Scientific, Waltham, MA, USA). The assays were performed four times on four different days. The results are presented as the means of the measured percentage of metabolic activity (MA) of fungi in the well when compared with positive (sample with Candida in DSB) and negative controls (pure DSB), which were taken as 100% and 0%, respectively. The MA of Candida in the samples was measured according to the following formula:MA(%) = (ΔAbs of sample − ΔAbs of negative control)/(ΔAbs of positive control − ΔAbs of negative control);(1) ΔAbs = absorbance at 570 nm − absorbance at 600 nm.(2)\nThe MBEC was taken as the lowest concentration of antifungal which allowed us to reduce the metabolism of fungal cells to 10% (or less) of the positive control."}, "[3]": {"tested_on": "C. albicans ATCC 10231", "assay": "microbe, parasite or virus in culture", "type": "cell-based, Candida albicans", "conditions": "for Minimum inhibitory concentration (MIC), C. albicans: RPMI 1640, inoculum ca. 5 × 10^3 CFU/mL, range 0.5–256 mg/L, 48 h, 25 °C, read visually, three times on three days", "description": "as §1, §2"}, "[4]": {"tested_on": "C. tropicalis PCM 2680", "assay": "microbe, parasite or virus in culture", "type": "cell-based, Candida tropicalis", "conditions": "for Minimum inhibitory concentration (MIC), C. tropicalis: RPMI 1640, inoculum ca. 5 × 10^3 CFU/mL, range 0.5–256 mg/L, 48 h, 25 °C, read visually, three times on three days", "description": "as §1, §2"}, "[5]": {"tested_on": "human red blood cells", "conditions": "cited from earlier work", "text": "Table 2 Minimum inhibitory concentrations (MIC) and minimum fungicidal concentrations (MFC) determined for peptides and reference antifungals [g/L]. The highest antimicrobial activity is marked in green, medium values in yellow, while the weakest antifungal activity is marked in red. Minimum hemolytic concentration (MHC5%—causing hemolysis of 5% of human red blood cells) determined in previous stu | column: MHC5%"}, "[6]": {"tested_on": "C. lypolytica PCM 2680", "assay": "microbe, parasite or virus in culture", "type": "cell-based, Candida lipolytica", "conditions": "RPMI 1640, inoculum ca. 5 × 10^3 CFU/mL, range 0.5–256 mg/L, 48 h, 25 °C, read visually, three times on three days", "description": "as §1, §2"}, "[7]": {"tested_on": "C. albicans ATCC 10231", "assay": "microbe, parasite or virus in culture", "type": "cell-based, Candida albicans", "conditions": "MIC wells and two higher concentrations seeded on DSA, 48 h, 25 °C, read visually, three times", "description": "as §1, §2, §3"}, "[8]": {"tested_on": "C. tropicalis PCM 2680", "assay": "microbe, parasite or virus in culture", "type": "cell-based, Candida tropicalis", "conditions": "MIC wells and two higher concentrations seeded on DSA, 48 h, 25 °C, read visually, three times", "description": "as §1, §2, §3"}, "[9]": {"tested_on": "C. glabrata ATCC 15126", "assay": "microbe, parasite or virus in culture", "type": "cell-based, Candida glabrata", "conditions": "MIC wells and two higher concentrations seeded on DSA, 48 h, 25 °C, read visually, three times", "description": "as §1, §2, §3"}, "[10]": {"tested_on": "C. lypolytica PCM 2680", "assay": "microbe, parasite or virus in culture", "type": "cell-based, Candida lipolytica", "conditions": "MIC wells and two higher concentrations seeded on DSA, 48 h, 25 °C, read visually, three times", "description": "as §1, §2, §3"}, "[11]": {"tested_on": "C. glabrata ATCC 15126", "assay": "microbe, parasite or virus in culture", "type": "cell-based, Candida glabrata", "conditions": "first C. glabrata column; RPMI 1640, inoculum ca. 5 × 10^3 CFU/mL, range 0.5–256 mg/L, 48 h, 25 °C, read visually, three times on three days", "description": "as §1, §2"}, "[12]": {"conditions": "human red blood cells, determined in previous studies, ref [13],[14]"}, "[13]": {"conditions": "no inhibition at the highest concentration applied"}}, "note": "Read-outs that look alike come from different tables or passages of the source. Marks after values point to notes of the source that are not given here. Where a SMILES comes first, the peptide text is derived from it. The star is where a group is joined. Octanoyl = CCCCCCCC(=O)*; PhAc = O=C(Cc1ccccc1)*; Bz = O=C(c1ccccc1)*"}
{"compound": "C[C@@H]1[C@H](O)[C@@H](C)/C=C/C=C/CC/C=C/C=C/C=C/C=C/C(O[C@H]2O[C@H](C)[C@@H](O)[C@H](N)[C@@H]2O)CC2O[C@](O)(CC(O)C(O)CCC(O)CC(O)CC(O)CC(=O)O[C@H]1C)CC(O)C2C(=O)O", "note": "(some centres unmarked) [Nystatin, nystatin, reference compound]", "values": [{"measurement": "Fungicidal activity (MFC relative to MIC)", "setting": "[1]", "result": "fungicidal activity against all Candida strains"}, {"measurement": "Antibiofilm concentration (256 mg/L) relative to the determined MIC", "setting": "[2]; C. albicans biofilm", "result": "over 100 times"}, {"measurement": "MBEC 24 h", "setting": "[2]; C. albicans biofilm cultured on polystyrene for 24 h, exposure 24 h, 25 °C, RPMI, resazurin, metabolic activity reduced to 10% or less, four times on four days", "result": 256, "unit": "mg/L"}, {"measurement": "MBEC 48 h", "setting": "[2]; C. albicans biofilm cultured on polystyrene for 48 h, exposure 24 h, 25 °C, RPMI, resazurin, metabolic activity reduced to 10% or less, four times on four days", "result": 256, "unit": "mg/L"}, {"measurement": "MBEC 72 h", "setting": "[2]; C. albicans biofilm cultured on polystyrene for 72 h, exposure 24 h, 25 °C, RPMI, resazurin, metabolic activity reduced to 10% or less, four times on four days", "result": 256, "unit": "mg/L"}]}
{"compound": "CC[C@H](C)[C@H](NC(=O)[C@H](CCCNC(=N)N)NC(=O)[C@H](CCC(N)=O)NC(=O)[C@@H](NC(=O)[C@@H](NC(=O)[C@H](CCCNC(=N)N)NC(=O)[C@H](CCCCN)NC(=O)c1ccccc1)[C@@H](C)CC)C(C)C)C(=O)N[C@@H](CCCCN)C(=O)N[C@@H](CC(=O)O)C(=O)N[C@@H](Cc1ccccc1)C(=O)N[C@@H](CC(C)C)C(=O)N[C@@H](CCCNC(=N)N)C(N)=O", "note": "[VIII, Benzoic acid-KR12-NH2] (Bz-KRIVQRIKDFLR-NH2)", "values": [{"measurement": "Minimum inhibitory concentration (MIC), C. albicans", "setting": "[3]", "result": 64, "unit": "µg/mL"}, {"measurement": "Minimum inhibitory concentration (MIC), C. tropicalis", "setting": "[4]", "result": 8, "unit": "µg/mL"}, {"measurement": "MHC5% (minimum hemolytic concentration causing hemolysis of 5% of human red blood cells)", "setting": "[5]; [12]", "result": ">256 * g/L"}, {"measurement": "Minimum inhibitory concentration (MIC), C. lipolytica", "setting": "[6]", "result": 32, "unit": "µg/mL"}, {"measurement": "Minimum fungicidal concentration (MFC), C. albicans", "setting": "[7]", "result": 64, "unit": "µg/mL"}, {"measurement": "Minimum fungicidal concentration (MFC), C. tropicalis", "setting": "[8]", "result": 16, "unit": "µg/mL"}, {"measurement": "Minimum fungicidal concentration (MFC), C. glabrata", "setting": "[9]", "result": 256, "unit": "µg/mL"}, {"measurement": "Minimum fungicidal concentration (MFC), C. lipolytica", "setting": "[10]", "result": 32, "unit": "µg/mL"}, {"measurement": "Minimum inhibitory concentration (MIC), C. glabrata", "setting": "[11]", "result": 256, "unit": "µg/mL"}]}
{"compound": "CCCCCCCC(=O)NCCCC[C@H](NC(=O)CCCCCCC)C(=O)N[C@@H](CCCNC(=N)N)C(=O)N[C@H](C(=O)N[C@H](C(=O)N[C@@H](CCC(N)=O)C(=O)N[C@@H](CCCNC(=N)N)C(=O)N[C@H](C(=O)N[C@@H](CCCCN)C(=O)N[C@@H](CC(=O)O)C(=O)N[C@@H](Cc1ccccc1)C(=O)N[C@@H](CC(C)C)C(=O)N[C@@H](CCCNC(=N)N)C(N)=O)[C@@H](C)CC)C(C)C)[C@@H](C)CC", "note": "[XVI, C8^α,C8^ε-KR12-NH2] (Octanoyl-K(Octanoyl)RIVQRIKDFLR-NH2)", "values": [{"measurement": "Growth inhibition of C. albicans (MIC)", "setting": "[3]; [13]", "result": "resistant"}, {"measurement": "Growth inhibition of C. tropicalis (MIC)", "setting": "[4]; [13]", "result": "resistant"}, {"measurement": "MHC5% (minimum hemolytic concentration causing hemolysis of 5% of human red blood cells)", "setting": "[5]", "result": ">256 * g/L"}]}
{"compound": "CC[C@H](C)[C@H](NC(=O)[C@H](CCCNC(=N)N)NC(=O)[C@H](CCC(N)=O)NC(=O)[C@@H](NC(=O)[C@@H](NC(=O)[C@H](CCCNC(=N)N)NC(=O)[C@H](CCCCN)NC(=O)Cc1ccccc1)[C@@H](C)CC)C(C)C)C(=O)N[C@@H](CCCCN)C(=O)N[C@@H](CC(=O)O)C(=O)N[C@@H](Cc1ccccc1)C(=O)N[C@@H](CC(C)C)C(=O)N[C@@H](CCCNC(=N)N)C(N)=O", "note": "[XXI, Phenylacetic acid-KR12-NH2] (PhAc-KRIVQRIKDFLR-NH2)", "values": [{"measurement": "Minimum inhibitory concentration (MIC), C. albicans", "setting": "[3]", "result": 64, "unit": "µg/mL"}, {"measurement": "Minimum inhibitory concentration (MIC), C. tropicalis", "setting": "[4]", "result": 8, "unit": "µg/mL"}, {"measurement": "MHC5% (minimum hemolytic concentration causing hemolysis of 5% of human red blood cells)", "setting": "[5]; [12]", "result": 256, "unit": "g/L"}, {"measurement": "Minimum inhibitory concentration (MIC), C. lipolytica", "setting": "[6]", "result": 16, "unit": "µg/mL"}, {"measurement": "Minimum fungicidal concentration (MFC), C. albicans", "setting": "[7]", "result": 64, "unit": "µg/mL"}, {"measurement": "Minimum fungicidal concentration (MFC), C. tropicalis", "setting": "[8]", "result": 16, "unit": "µg/mL"}, {"measurement": "Minimum fungicidal concentration (MFC), C. glabrata", "setting": "[9]", "result": 256, "unit": "µg/mL"}, {"measurement": "Minimum fungicidal concentration (MFC), C. lipolytica", "setting": "[10]", "result": 16, "unit": "µg/mL"}, {"measurement": "Minimum inhibitory concentration (MIC), C. glabrata", "setting": "[11]", "result": 256, "unit": "µg/mL"}]}
